Source: US9226917B2, “Photodynamic therapy for conditions of the eye” (Valeant Pharmaceuticals International, Inc., priority 2008, dated 2016)

Tests used:
[1] = test system: AMD and other retinal diseases; settings: intravitreal injection, published case series; cited from earlier work
CNV due to AMD = settings: dosing every 3 months compared to continued monthly dosing, on average, over the following 9 months; cited from earlier work
[2] = RADICAL study: safety / adverse events; assay type: in vivo, human; settings: 12 months
Experimental: The study is a 24-month randomized, controlled trial designed to evaluate 3 combination treatment regimens: (1) very low-fluence vPDT (15 J/cm^2) combined with ranibizumab (0.5 mg) and dexamethasone (0.5 mg); (2) half-fluence vPDT (25 J/cm^2) combined with ranibizumab and dexamethasone; and (3) half-fluence vPDT combined with ranibizumab. These regimens are compared with ranibizumab monotherapy in patients with subfoveal choroidal neovascularization (CNV) due to AMD. Inclusion criteria includes ≧50 years old; naïve to AMD treatment; best-corrected VA (BCVA) letter score of 73-24; subfoveal CNV due to AMD; and lesion size <9 DA. Patients (N=160) are randomly assigned to 1 of the 4 treatment arms at baseline, receive 1 initial treatment, and are to be evaluated for retreatment every month based on novel criteria using OCT and FA. […]
Best-corrected visual acuity is assessed by the ETDRS method at screening, on the day of initial treatment (before treatment), at monthly visits through 6 months, and at the 12-, 18-, and 24-month visits. FA is assessed at screening, at the 3- and 12-month visits, and as required according to re-treatment criteria. OCT is assessed to determine retreatment criteria at every visit. Safety, including intraocular pressure, is also evaluated at every visit. […]

[3] = test system: subfoveal choroidal neovascularization (CNV) due to AMD; assay: RADICAL study: 24-month randomized, controlled trial of vPDT combination regimens versus ranibizumab monotherapy (visual acuity, retreatments, retinal thickness); assay type: in vivo, human
Experimental: The study is a 24-month randomized, controlled trial designed to evaluate 3 combination treatment regimens: (1) very low-fluence vPDT (15 J/cm^2) combined with ranibizumab (0.5 mg) and dexamethasone (0.5 mg); (2) half-fluence vPDT (25 J/cm^2) combined with ranibizumab and dexamethasone; and (3) half-fluence vPDT combined with ranibizumab. These regimens are compared with ranibizumab monotherapy in patients with subfoveal choroidal neovascularization (CNV) due to AMD. Inclusion criteria includes ≧50 years old; naïve to AMD treatment; best-corrected VA (BCVA) letter score of 73-24; subfoveal CNV due to AMD; and lesion size <9 DA. Patients (N=160) are randomly assigned to 1 of the 4 treatment arms at baseline, receive 1 initial treatment, and are to be evaluated for retreatment every month based on novel criteria using OCT and FA. Patients in the ranibizumab monotherapy group receive mandatory dosing at months 1 and 2, and as needed thereafter based on the same retreatment criteria. Patients in the combination therapy groups receive assigned treatment as needed (not more frequently than every 2 months), based on retreatment criteria; if treatment is required in an intervening month, then a ranibizumab injection is given. Study outcomes include efficacy, safety, and number of retreatments.
After their initial randomized study treatment, patients in the combination therapy groups return to the clinic monthly for re-treatment evaluation. Re-treatment criteria are based on optical coherence tomography (OCT) and fluorescein angiography (FA). If OCT central retinal thickness (CRT) is ≧250 μm or is increased >50 μm compared with the lowest previous CRT measurement, then the patient is re-treated.
Combination re-treatment is not administered more frequently than every 2 months. If re-treatment is found to be needed in an intervening month, the patient receives a ranibizumab injection only. After their initial randomized study treatment, patients in the ranibizumab monotherapy group receive mandatory re-treatment at months 1 and 2, and then re-treatment as needed thereafter based on the criteria described above. In all treatment arms, monthly assessments and potential re-treatments continue through 12 months of the study. Between 12 and 24 months, patients attend the clinic at least once every 3 months, or more frequently at the investigator's discretion.
Best-corrected visual acuity is assessed by the ETDRS method at screening, on the day of initial treatment (before treatment), at monthly visits through 6 months, and at the 12-, 18-, and 24-month visits. FA is assessed at screening, at the 3- and 12-month visits, and as required according to re-treatment criteria. OCT is assessed to determine retreatment criteria at every visit. Safety, including intraocular pressure, is also evaluated at every visit.
Study outcomes include visual acuity, CRT, lesion size, number of re-treatments, and safety. The primary efficacy variables are mean number of re-treatments and mean change from baseline in visual acuity score.
Randomization occurs on the day of the first treatment to one of the following groups: • Lucentis monotherapy. • Half-fluence Visudyne-Lucentis (V-L) double therapy. • Half-fluence (25 J/cm^2) Visudyne-Lucentis-Dexamethasone (V-L-D) triple therapy. • Very low-fluence (15 J/cm^2) Visudyne-Lucentis-Dexamethasone (V-L-D) triple therapy.
Treatments occur within 7 days of baseline FA. […]

Row | Substance | mean VA in treated patients [1] | loss of visual acuity benefit (CNV due to AMD) [letter] | Ocular adverse events considered associated with treatment (share of patients) [2] | percentage of patients whose vision improved by 3 lines or more ([3]; 12 months) [%] | Mean retreatment rate ([3]; ITT, 12 months, Day 0 treatment excluded) | Mean VA improvement from baseline (letters) ([3]; ITT, month 12) | Mean VA improvement from baseline (letters) ([3]; Per-protocol, 12 months) | Mean retreatment rate ([3]; Per-protocol, 12 months)
1 | bevacizumab [Avastin] | increase of mean VA |  |  |  |  |  |  | 
2 | ranibizumab [Lucentis monotherapy] |  | ~5 | approximately one-fourth | 24 | 5.4 | 6.5 | 6.8 | 5.9
